{
  "source": "patent US20120040956A1",
  "about": "“INHIBITORS OF HIF-1 PROTEIN ACCUMULATION” (INTERMED DISCOVERY GMBH, priority 2008, published 2012)",
  "key": {"HIF-1": {"tested_on": "HIF-1", "experiment": "HIF-1-dependent luciferase reporter gene activity in 293T cells under hypoxia", "type": "cell-based, human", "description": "A HIF-1-dependent luciferase reporter gene was transfected into 293T cells by transfection with Rotifect™ (Trademarked by Carl Roth GmbH; Karlsruhe, Germany) or alternatively into Jurkat T cells by electroporation. Both cell lines were transfected with a HIF-1-dependent reporter gene. The next day, cells were preincubated for 1 h with the indicated, submicromolar concentrations of the test compounds and then incubated for further 8 h under normoxic or hypoxic (1% O2) conditions. After that, cells were harvested followed by the analysis of luciferase activity in a luminometer.\nA HIF-1-dependent luciferase reporter gene was transfected into 293T cells. The next morning, cells were pretreated for 1 h with the indicated concentrations of compounds, followed by induction of hypoxia (hypoxia chamber) for 8 h. Subsequently cells were harvested and lyzed. Luciferase activity in cell extracts was measured in a luminometer (Duo Lumat LB 9507, Berthold) by injecting 20 microliter of assay buffer to 20 microliter of extract. Light emission was measured for 10 s, relative light units are given.\nAfter transfection of 293T cells with a HIF-1-dependent luciferase reporter gene, cells were further incubated under normoxic or hypoxic (8 h, 1% O2) conditions as shown in FIG. 4. Effectively blocking concentrations of the IMDs (250 nM each) were added either 1 hour prior to hypoxia or 2 and 4 hours after induction of hypoxia."}, "HUVEC [1]": {"tested_on": "HUVEC", "experiment": "Spheroid-based angiogenesis assay, Deferoxamine (hypoxia) induced HUVEC sprouting", "type": "cell-based, human", "description": "Prior application the stock solution [100 mM] of IMD-019064 was diluted 1:10 in DMSO and serially diluted in half logarithmic steps covering the concentration range from 10 mM to 1 μM using 100% DMSO. The final assay concentration ranged from 100 μM to 10 nM with a final DMSO concentration in the assay of 1%. The experiments were pursued in modification of the originally published protocol (Korff and Augustin: J Cell Sci 112: 3249-58, 1999). In brief, spheroids were prepared as described by Korff and Augustin: J Cell Biol 143: 1341-52, 1998) by pipetting 500 endothelial cells (EC) in a hanging drop on plastic dishes to allow overnight spheroid aggregation. 50 EC spheroids were then embedded in 0.9 ml of a 3D collagen matrix and pipetted into individual wells of a 24 well plate to allow polymerization.\nPlates were incubated at 37° C. for 24 hours and fixed by adding 4% paraformaldehyde. The cumulative sprout length of 10 randomly selected spheroids per data point was analyzed and the relative inhibition by the test compound determined. Fitting of IC50 curves and calculation of IC50 values was performed with GraphPad Prism 5.01. Sprouting intensity of EC and fibroblast spheroids was quantitated by an image analysis system using an inverted microscope and the digital imaging software Analysis 3.2 (Soft imaging system, Munster, Germany). In parallel NHDF (fibroblast) spheroids were embedded in a 3D collagen gel and treated for 24 h with different concentrations of IMD-019064. The cumulative sprout length of 10 randomly selected spheroids per data point was analyzed according to the procedure used for the HUVEC experiment.\nThe same assays were performed with IMD-026260; IMD-026259; Sutent® (Sunitinib) and Sorafenib (Nexavar®) (see Table 3 for final compound concentrations)."}, "[2]": {"tested_on": "PDK1 (pyruvate dehydrogenase kinase1)", "experiment": "HIF-1 target gene PDK1 expression in 293T cells by real-time PCR", "type": "cell-based", "settings": "Homo sapiens, HEK-293T, 1 h pretreatment, 8 h hypoxia, read-out: IC50, suppression of endogenous PDK1 gene expression", "description": "Human 293T cells were cultivated either under normoxic conditions or under hypoxic conditions (1% oxygen) for 4 and 8 hs respectively. Cells were harvested, followed by the isolation of RNA and the generation of cDNAs from Oligo (dT)20 primers using a Reverse Transcriptase kit. Then gene expression was measured by real-time PCR for the following two selected HIF-1α target genes: LDH-A (lactate dehydrogenase isoform A), and PDK1 (pyruvate dehydrogenase kinase1). Real-time PCR was performed with cDNA using specific primers and the SYBR Green I detection chemistry system (Applied Biosystems), utilizing an ABI Prism 7300 system. Actin was also measured as an internal control. The relative abundance of the different genes was calculated by the comparative CT method. In order to facilitate comparison, gene expression under normoxic conditions was arbitrarily set to 1 for each of the three genes. Two independent experiments confirmed PDK1 as the gene which was induced most prominently compared to LDH.\nTo investigate the capability of the compounds to inhibit PDK1, 293T cells were pretreated for 1 h with 3 different concentrations of the respective inhibitors (IMD-019064; IMD-026259; and IMD-026260). Subsequently, cells were incubated under normoxic/hypoxic conditions for further 8 h and the expression of PDK1 was quantified by real-time PCR as described above."}, "HUVEC [3]": {"tested_on": "HUVEC", "experiment": "Spheroid-based angiogenesis assay, VEGF-A induced HUVEC sprouting", "type": "cell-based, human", "description": "As described in Example 4 HUVEC spheroids were generated, cultivated and embedded in a 3D collagen gel and stimulated with Vascular Endothelial Growth Factor alpha [VEGF-A; 25 ng/ml] instead of deferoxamine. Cell spheroids were treated for 24 h with different concentrations of IMD-026259; IMD-026260; Sutent® (Sunitinib) and Sorafenib (Nexavar®) (in Molar [M], as indicated in Table 4; see also FIG. 14A).\nThe cumulative sprout length of 10 randomly selected spheroids per data point was analyzed and the relative inhibition by the test compound determined. Fitting of IC50 curves and calculation of IC50 values was performed with GraphPad Prism® 5.01 (trademarked by GraphPad Software Inc.). […] Results from the examples described above are summarized in FIG. 14b IC50 values are given in nM for in vitro angiogenesis (HUVEC sprouting) studies after hypoxic or VEGF induction."}, "IKKy/NEMO": {"tested_on": "IKKy/NEMO", "experiment": "Cellular protein translation in 293T cells (anti-IKKy/NEMO immunoblotting)", "type": "cell-based, human", "settings": "100 nM, 10 h and 24 h", "description": "293T cells were grown in the presence of the known translation inhibitor cycloheximide (10 μg/ml) and 100 nM of IMD-019064, IMD-026259 and IMD-026260 respectively. […] Cells were harvested after 10 h and 24 h and cell lysates were produced. Equal amounts of protein contained in the cell lysates were used for immunoblotting with anti-IKKy/NEMO antibodies as shown in FIG. 12. IKKy/NEMO is a constitutively expressed relatively labile protein. Thus successful inhibition of cellular protein translation should result in significant decline of anti-IKKy/NEMO signal."}},
  "data": [
    {"smiles": "CNCCOc1ccc2c(c1)OC1(c3ccc(Cl)cc3)C(c3ccccc3)CC(O)C21O", "note": "(centres unmarked) [IMD-026260, (1,3a,8b)-3a-(4-chlorophenyl)-6-(2-(methylamino)ethoxy)-3-phenyl-2,3,3a,8b-tetrahydro-1H-benzo[d]cyclopenta[b]furan-1,8b-diol]", "values": [
      {"measurement": "time-dependency of inhibition of HIF-1-dependent luciferase expression", "setting": "HIF-1; 250 nM, added 4 hours after induction of hypoxia (8 h, 1% O2)", "value": "able to inhibit HIF-1-dependent luciferase expression even when added 4 hours after hypoxic induction"},
      {"measurement": "IC50", "setting": "HIF-1; Homo sapiens, HEK-293T, 1 h pretreatment, hypoxia 8 h, read-out: IC50, HIF-1 luciferase inhibitory activity", "value": 18, "unit": "nM"},
      {"measurement": "IC50", "setting": "HUVEC [1]; Homo sapiens, HUVEC, Deferoxamine 100 μM, 24 hours, collagen matrix, read-out: IC50, hypoxia induced EC (HUVEC) sprouting", "value": 13, "unit": "nM"},
      {"measurement": "difference in HUVEC and fibroblast sensitivity", "setting": "HUVEC [1]; NHDF IC50 versus Deferoxamine-induced HUVEC IC50", "value": "greater than thirteen-fold"},
      {"measurement": "IC50", "setting": "[2]", "value": 8, "unit": "nM"},
      {"measurement": "IC50", "setting": "HUVEC [3]; Homo sapiens, HUVEC, VEGF-A 25 ng/ml, 24 h, read-out: IC50, VEGF-A induced sprouting of HUVEC spheroids", "value": 28, "unit": "nM"},
      {"measurement": "inhibition of angiogenic sprouting in vitro (HUVEC sprouting)", "setting": "HUVEC [3]; after hypoxic or VEGF induction, summary statement", "value": "potent inhibitors of angiogenic sprouting in vitro"},
      {"measurement": "anti-IKKy/NEMO signal (cellular protein translation)", "setting": "IKKy/NEMO", "value": "did not result in reduced anti-IKKy/NEMO signals"}
    ]}
  ]
}
